The values below come from patent US5472954A, “Cyclodextrin complexation” (priority 1993, dated 1995).

For orientation: solubility means how much of the substance goes into solution per volume.

In brackets after ≈: the same amount, converted by molar mass.

Data set [1] in a line: ΔH, ΔS and stability constant (Kc) of drug-HPβCD MS 0.6 complexes, effect of PVP (Example 17). Format: physicochemical. The conditions noted are these: HPβCD MS 0.6 complex. As for the experimental part:
The effect of polyvinylpyrrolidone (PVP) on the enthalpy (ΔH) and the entropy (ΔS) of the stability constant (Kc) of the drug-cyclodextrin complex was determined.
An excess amount of the drug was added to water containing 0, 0.1, 0.25 or 0.5% (w/v) PVP and various amounts of HPβCD or HPαCD.

A short description of data set [2]: physchem.
A short description of data set [3]: Effect of polymers on the solubilization of various compounds in aqueous HPβCD solutions (Example 14). How it is done: An excess amount of the compound to be tested was added to each solvent and the suspensions which formed were heated in sealed containers to 120° C. The solubility of salicylic acid was determined in acidic (HCl) solution.
A short description of data set [4]: physchem. The source holds these as a separate data set.
Data set [5] is described as follows: Effect of PVP on the solubilization of drugs in aqueous HPβCD solutions (Example 7). The conditions noted are these: for S4 /S3: with vs without 0.25% PVP.
Data set [6] in a line: Solubility of various drugs: effect of CMC in aqueous HPβCD solutions (Example 1). The note with it: for S4 /S3: 0.25% CMC + 10% HPβCD vs 10% HPβCD.
Where [7] appears, read: HPβCD with CMC / HPβCD without polymer (S6).
Where [8] appears, read: HPβCD with HPMC / HPβCD without polymer (S8).
Where [9] appears, read: HPβCD with PVP / HPβCD without polymer (S7).

On to `C[C@]12CC[C@@H]3c4ccc(O)cc4CC[C@H]3[C@@H]1CC[C@@H]2O` [17β-Estradiol, 17β-estradiol], for which the ΔH is -17 kcal/mol in data set [1] (PVP 0.00% w/v), -18 kcal/mol in data set [1] (PVP 0.10% w/v), -21.4 kcal/mol in data set [1] (PVP 0.25% w/v) and -19.4 kcal/mol in data set [1] (PVP 0.50% w/v). Moreover, the ΔS in data set [1] (PVP 0.00% w/v) is given as -151 J mol^-1 K^-1; in data set [1] (PVP 0.10% w/v) it was -166 J mol^-1 K^-1; in data set [1] (PVP 0.25% w/v), -213 J mol^-1 K^-1; in data set [1] (PVP 0.50% w/v), -185 J mol^-1 K^-1.

As to `Cc1nnc2n1-c1ccc(Cl)cc1C(c1ccccc1)=NC2` [Alprazolam], the solubility in the data set “physchem [2]” (0.25% cmc + 10% hpbetacd) came out at 1550 µg/mL; in the data set “physchem [2]” (aqueous 0.25% cmc), 180 µg/mL (≈ 0.583 mM); in “physchem [2]” (aqueous 10% hpbetacd), 1280 µg/mL (≈ 4.15 mM); in the data set “physchem [2]” (water), 70 µg/mL (≈ 0.227 mM).

In turn, `COc1ccc(O)c(C(C)(C)C)c1` [Butylated hydroxyanisole] displayed an S2 solubility in data set [3] (0.25% (w/v) CMC) of 400 µg/mL. Moreover, the S4 solubility in data set [3] (0.25% (w/v) HPMC) worked out at 280 µg/mL. Further, in data set [3] (0.25% (w/v) PVP), the S3 solubility came to 1240 µg/mL. Besides, the S6 solubility in data set [3] (0.25% CMC and 10% HPβCD MS=0.6 (salicylic acid: acidic HCl solution)) stood at 14300 µg/mL. In data set [3] (0.25% HPMC and 10% HPβCD MS=0.6 (salicylic acid: acidic HCl solution)), this compound came in with an S8 solubility of 15500 µg/mL. The compound also registered an S7 solubility in data set [3] (0.25% PVP and 10% HPβCD MS=0.6 (salicylic acid: acidic HCl solution)) of 15800 µg/mL. Besides, the S5 solubility in data set [3] (10% (w/v) HPβCD MS=0.6 (salicylic acid: acidic HCl solution)) is 13900 µg/mL. For the same compound, the solubility ratio in data set [3] (setting [7]) is reported as 1.03; in data set [3] (setting [8]), 1.12; in data set [3] (setting [9]), 1.14. The S1 solubility in data set [3] (water) was 400 µg/mL.

Regarding `CC12CCC(CC1=O)C2(C)C` (stereo not drawn) [Camphor], the solubility worked out at 13300 µg/mL in data set [3] (0.25% hpmc + 10% hpβcd); 13700 µg/mL in data set [3] (0.25% pvp + 10% hpβcd); 2010 µg/mL (≈ 13.2 mM) in data set [3] (aqueous 0.25% cmc); 13800 µg/mL (≈ 90.6 mM) in data set [3] (aqueous 0.25% cmc, 10% hpβcd); 1920 µg/mL (≈ 12.6 mM) in data set [3] (aqueous 0.25% hpmc); 2200 µg/mL (≈ 14.5 mM) in data set [3] (aqueous 0.25% pvp). Also, the solubility in data set [3] (aqueous 10% hpβcd) was 12700 µg/mL (≈ 83.4 mM); in data set [3] (water) it was 1840 µg/mL (≈ 12.1 mM).

For `CC(C)(O)C(Cl)(Cl)Cl` [Chlorbutol], the solubility came to 29900 µg/mL in data set [3] (0.25% hpmc + 10% hpβcd); 8410 µg/mL (≈ 47.4 mM) in data set [3] (aqueous 0.25% cmc); 29300 µg/mL (≈ 165 mM) in data set [3] (aqueous 0.25% cmc, 10% hpβcd); 8150 µg/mL (≈ 45.9 mM) in data set [3] (aqueous 0.25% hpmc); 8410 µg/mL (≈ 47.4 mM) in data set [3] (aqueous 0.25% pvp); 28600 µg/mL (≈ 161 mM) in data set [3] (aqueous 10% hpβcd). The solubility in data set [3] (water) worked out at 8110 µg/mL (≈ 45.7 mM).

Take `C=C1CC[C@H](O)C/C1=C/C=C1\CCC[C@]2(C)[C@@H]([C@H](C)CCCC(C)C)CC[C@@H]12` [Cholecalciferol]: the solubility in data set [3] (0.25% hpmc + 10% hpβcd) amounted to 690 µg/mL; in data set [3] (0.25% pvp + 10% hpβcd), 760 µg/mL; in data set [3] (aqueous 0.25% cmc, 10% hpβcd) it was 720 µg/mL (≈ 1.87 mM); in data set [3] (aqueous 10% hpβcd), 610 µg/mL (≈ 1.59 mM). The solubility ratio stood at 1.18 in data set [3] (setting [7]), 1.14 in data set [3] (setting [8]) and 1.25 in data set [3] (setting [9]).

For `Clc1ccccc1C(c1ccccc1)(c1ccccc1)n1ccnc1` [Clotrimazole, clotrimazole], the figures for the solubility in the data set “physchem [2]” (0.25% cmc + 10% hpbetacd) and in “physchem [2]” (aqueous 10% hpbetacd) were 1400 µg/mL and 1200 µg/mL (≈ 3.48 mM), respectively. Besides, the solubility at 72 h was determined as 1800 µg/mL (≈ 5.22 mM) in “physchem [4]” (0.25% pvp, 10% hpβcd) and 1200 µg/mL (≈ 3.48 mM) in the data set “physchem [4]” (10% hpβcd ms 0.7).

As to `CCOc1ccc2nc(S(N)(=O)=O)sc2c1` [Ethoxyzolamide], the solubility was 1660 µg/mL in “physchem [2]” (0.25% cmc + 10% hpbetacd), 70 µg/mL (≈ 0.271 mM) in “physchem [2]” (aqueous 0.25% cmc), 1190 µg/mL (≈ 4.61 mM) in the data set “physchem [2]” (aqueous 10% hpbetacd) and 40 µg/mL (≈ 0.155 mM) in the data set “physchem [2]” (water). Besides, the solubility at 72 h in the data set “physchem [4]” (0.25% pvp, 10% hpβcd) was determined as 2720 µg/mL (≈ 10.5 mM); in “physchem [4]” (10% hpβcd ms 0.7) it was 1360 µg/mL (≈ 5.26 mM); in the data set “physchem [4]” (aqueous 0.25% pvp) it was 60 µg/mL (≈ 0.232 mM); in the data set “physchem [4]” (water), 40 µg/mL (≈ 0.155 mM). The figures for the “S4 /S3” value in data set [5] and in data set [6] were 2.00 and 1.39, respectively.

As for `CN(C)c1ccc(N=Nc2ccccc2)cc1` [Methylyellow], the solubility in data set [3] (0.25% hpmc + 10% hpβcd) was found to be 250 µg/mL; in data set [3] (0.25% pvp + 10% hpβcd), 240 µg/mL; in data set [3] (aqueous 0.25% cmc), 0.85 µg/mL (≈ 0.00377 mM); in data set [3] (aqueous 0.25% cmc, 10% hpβcd) it was 240 µg/mL (≈ 1.07 mM); in data set [3] (aqueous 0.25% hpmc), 0.75 µg/mL (≈ 0.00333 mM); in data set [3] (aqueous 0.25% pvp), 0.85 µg/mL (≈ 0.00377 mM). The solubility in data set [3] (aqueous 10% hpβcd) came to 230 µg/mL (≈ 1.02 mM); in data set [3] (water), 0.64 µg/mL (≈ 0.00284 mM). The solubility ratio in data set [3] (setting [7]) was determined as 1.04; in data set [3] (setting [8]), 1.09; in data set [3] (setting [9]), 1.04.

Turning to `C[C@]12C=CC(=O)C=C1CC[C@@H]1[C@@H]2[C@@H](O)C[C@@]2(C)[C@H]1CC[C@]2(O)C(=O)CO` [Prednisolone, prednisolone], the solubility in “physchem [2]” (0.25% cmc + 10% hpbetacd) stood at 15300 µg/mL; in the data set “physchem [2]” (aqueous 0.25% cmc), 530 µg/mL (≈ 1.47 mM); in “physchem [2]” (aqueous 10% hpbetacd) it was 13600 µg/mL (≈ 37.7 mM); in the data set “physchem [2]” (water), 380 µg/mL (≈ 1.05 mM). Further, in data set [6], the “S4 /S3” value was determined as 1.13.

As for `CC(=O)[C@H]1CC[C@H]2[C@@H]3CCC4=CC(=O)CC[C@]4(C)[C@H]3CC[C@]12C` [Progesterone, progesterone], the solubility at 72 h in data set [5] (0.25% pvp, 10% hpβcd) is 5710 µg/mL (≈ 18.2 mM); in data set [5] (10% hpβcd ms 0.7), 4760 µg/mL (≈ 15.1 mM). The “S4 /S3” value is reported as 1.20 in data set [5] and 1.52 in data set [6]. In addition, the solubility in data set [6] (0.25% cmc + 10% hpbetacd) turned out to be 6110 µg/mL; in data set [6] (aqueous 10% hpbetacd), 4030 µg/mL (≈ 12.8 mM).

As to `O=C(O)c1ccccc1O` [Salicylic acid], the solubility in data set [3] (10% hpβcd acidic hcl solution) worked out at 3710 µg/mL (≈ 26.9 mM); in data set [3] (acidic hcl, cmc, hpβcd) it was 4230 µg/mL (≈ 30.6 mM); in data set [3] (hpmc/hpβcd acidic hcl solution), 3920 µg/mL (≈ 28.4 mM); in data set [3] (pvp/hpβcd acidic hcl solution), 4070 µg/mL (≈ 29.5 mM). Moreover, the solubility ratio in data set [3] (setting [7]) came to 1.14; in data set [3] (setting [8]) it was 1.06; in data set [3] (setting [9]), 1.10.

Take `CC1(C)O[C@@H]2C[C@H]3[C@@H]4CCC5=CC(=O)C=C[C@]5(C)[C@@]4(F)[C@@H](O)C[C@]3(C)[C@]2(C(=O)CO)O1` [Triamcinolone acetonide, triamcinolone acetonide]: the solubility in “physchem [2]” (0.25% cmc + 10% hpbetacd) came out at 2580 µg/mL; in the data set “physchem [2]” (aqueous 0.25% cmc), 70 µg/mL (≈ 0.161 mM); in “physchem [2]” (aqueous 10% hpbetacd), 2090 µg/mL (≈ 4.81 mM); in the data set “physchem [2]” (water), 30 µg/mL (≈ 0.069 mM).

Turning to `COc1cc(Cc2cnc(N)nc2N)cc(OC)c1OC` [Trimethoprim], the solubility at 72 h in “physchem [4]” (0.25% pvp, 10% hpβcd) is 6470 µg/mL (≈ 22.3 mM); in the data set “physchem [4]” (10% hpβcd ms 0.7) it was 2830 µg/mL (≈ 9.75 mM); in “physchem [4]” (aqueous 0.25% pvp) it was 1350 µg/mL (≈ 4.65 mM); in “physchem [4]” (water), 820 µg/mL (≈ 2.82 mM).

As to `COc1cc(C=O)ccc1O` [Vanillin], the solubility amounted to 26500 µg/mL in data set [3] (0.25% hpmc + 10% hpβcd); 13700 µg/mL (≈ 90 mM) in data set [3] (aqueous 0.25% cmc); 27300 µg/mL (≈ 179 mM) in data set [3] (aqueous 0.25% cmc, 10% hpβcd); 17100 µg/mL (≈ 112 mM) in data set [3] (aqueous 0.25% hpmc); 11500 µg/mL (≈ 75.6 mM) in data set [3] (aqueous 0.25% pvp); 25000 µg/mL (≈ 164 mM) in data set [3] (aqueous 10% hpβcd). For the same compound, the solubility in data set [3] (water) was found to be 13900 µg/mL (≈ 91.4 mM). Moreover, the solubility ratio in data set [3] (setting [7]) stood at 1.09; in data set [3] (setting [8]), 1.06.
